This passage reports TGI and GI50 results from PubChem BioAssay (NCI).

Test systems include UACC-257 melanoma; SR leukemia; U251 CNS; NCI-H522 lung; SK-OV-3 ovarian; SN12C renal; COLO 205 colon; HOP-62 NSCLC; PC-3 prostate; NCI/ADR-RES ovarian.
Test in all cases: NCI-60 cell line screen, 48 h

Values joined by “and” are separate entries in the source; they are usually repeats but may differ in a detail not shown here. Equal entries are not always repeated.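 Tested at 5 concentrations; 48 h exposure; 96-well plates; endpoints linearly interpolated, else capped at highest concentration. The concentration for 50% growth inhibition is given as GI50. The concentration for full growth arrest is given as TGI.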 A value given as a limit tells only on which side of the number the result lay.

With `FC(F)(F)c1cccc(C2SCc3nc4ccccc4n32)c1` (stereo not given), the TGI is above 100 µM with UACC-257 melanoma; above 100 µM with SR leukemia; above 100 µM with U251 CNS; above 100 µM in the experiment on NCI-H522 lung; 89.1 µM with SK-OV-3 ovarian; above 100 µM in the experiment on SN12C renal. The TGI with COLO 205 colon was above 100 µM.

Regarding `COc1ccc2c(c1)C(=O)c1c-2c(NCCN(C)C)nc2ccccc12`, the GI50 with UACC-257 melanoma is 4.6 µM; with SR leukemia, 0.35 µM; with U251 CNS it was 2.47 µM; in the experiment on HOP-62 NSCLC it was 14.3 µM; in the experiment on NCI-H522 lung it was 6.92 µM; in the experiment with SN12C renal it was 3.74 µM. Moreover, the results for the GI50 in the experiment on PC-3 prostate, in the experiment on NCI/ADR-RES ovarian and in the experiment on COLO 205 colon were 2.93 µM, 3.66 µM and 4.51 µM, respectively. The TGI is 17.5 µM with UACC-257 melanoma; 2.66 µM with SR leukemia; 11.7 µM in the experiment with U251 CNS; 27.4 µM with HOP-62 NSCLC; 20.9 µM in the experiment on NCI-H522 lung; 16 µM in the experiment with SN12C renal. The results for the TGI in the experiment with PC-3 prostate, in the experiment with NCI/ADR-RES ovarian and in the experiment with COLO 205 colon were 14.2 µM, 14.3 µM and 19.3 µM, respectively.

In the case of `CCOC(=O)NC1CC2CCC1(OC)C=C2C` (stereo not given), the TGI in the experiment with UACC-257 melanoma, in the experiment with SR leukemia, in the experiment on U251 CNS, with HOP-62 NSCLC, in the experiment with NCI-H522 lung and with SK-OV-3 ovarian was above 100 µM in each case. Moreover, the TGI in the experiment on SN12C renal and with COLO 205 colon was above 100 µM in each case.

In the case of `FC(F)(F)c1nc(-c2ccccc2)oc1Sc1oc(-c2ccccc2)nc1C(F)(F)F`, the TGI in the experiment with UACC-257 melanoma, in the experiment with SR leukemia, in the experiment on U251 CNS, in the experiment on HOP-62 NSCLC, with NCI-H522 lung and with SK-OV-3 ovarian was above 100 µM each time. Further, the TGI with SN12C renal and with COLO 205 colon was above 100 µM throughout.

With `CCCCCCCCCCCCCCCCCC[N+](C)(C)Cc1ccc(C[N+](C)(C)CCCCCCCCCCCCCCCCCC)cc1`, the TGI in the experiment with UACC-257 melanoma was 34 µM; in the experiment with SR leukemia, 5.63 µM; in the experiment with U251 CNS, 56.2 µM; with HOP-62 NSCLC it was 34.7 µM; in the experiment with NCI-H522 lung, above 100 µM; with SK-OV-3 ovarian it was 69.6 µM. Further, the TGI in the experiment with SN12C renal was 30.1 µM; in the experiment on COLO 205 colon, above 100 µM.

In the case of `C/C=C/C1=CN2C(=O)c3cc(OC4OC(C)C(NC)C(C)(O)C4O)c(C)c(O)c3N=C[C@@H]2C1` (stereo not given in full), the GI50 with SR leukemia is 0.0253 µM and < 0.01 µM; in the experiment with U251 CNS it was 0.043 µM and < 0.01 µM; in the experiment on NCI-H522 lung it was 0.119 µM. Also, the TGI in the experiment on U251 CNS amounted to 12.5 µM; with NCI-H522 lung, 0.302 µM; with SK-OV-3 ovarian, 12.4 µM; in the experiment with SN12C renal, 1.21 µM; with PC-3 prostate, 16.5 µM; in the experiment with NCI/ADR-RES ovarian it was 4.71 µM.

In the case of `Nc1ncnc2c1ncn2C1OC(COC2C(CO)OC(OC(C(=O)O)C(O)C(OP(=O)(O)O)C(O)C(=O)O)C(O)C2O)C(O)C1O` (stereo not given), the TGI in the experiment with UACC-257 melanoma, in the experiment with SR leukemia, in the experiment on U251 CNS, in the experiment with HOP-62 NSCLC, in the experiment on NCI-H522 lung and with SK-OV-3 ovarian was above 100 µM throughout. Further, the TGI in the experiment with PC-3 prostate and in the experiment with COLO 205 colon was above 100 µM in each case.

Take `c1ccc2c(CNCCCCCCCCCCCCNCc3cccc4ccccc34)cccc2c1`: the TGI with UACC-257 melanoma was 3.17 µM; in the experiment with SR leukemia it was 2.69 µM; with U251 CNS it was 3.17 µM; in the experiment with HOP-62 NSCLC, 4.56 µM; with NCI-H522 lung it was 3.35 µM; in the experiment on SK-OV-3 ovarian, 26.5 µM. Besides, the TGI in the experiment on SN12C renal is 13.6 µM; with COLO 205 colon, above 100 µM.

On to `COC1CC(OC)C(O)C(CO)O1` (stereo not given), for which the TGI in the experiment with UACC-257 melanoma, with SR leukemia, in the experiment with U251 CNS, with HOP-62 NSCLC, with NCI-H522 lung and in the experiment on SK-OV-3 ovarian was above 100 µM each time. The same compound registered a TGI in the experiment on SN12C renal above 100 µM.

Consider `COC(=O)Cc1cc(=O)n2c([nH]c3ccccc32)c1C#N`, for which the TGI in the experiment on UACC-257 melanoma, in the experiment on SR leukemia, with U251 CNS, with HOP-62 NSCLC, in the experiment with SK-OV-3 ovarian and in the experiment with SN12C renal was above 100 µM each time. Further, the TGI in the experiment with COLO 205 colon was above 100 µM.

As for `Nc1nc(=Nc2ccccc2)ss1`, the TGI in the experiment with UACC-257 melanoma, in the experiment on SR leukemia, in the experiment on U251 CNS, in the experiment on HOP-62 NSCLC, with NCI-H522 lung and with SK-OV-3 ovarian was above 100 µM each time. Besides, the TGI with SN12C renal and in the experiment on COLO 205 colon was above 100 µM throughout.

For the compound `COC1=C(OC)[C@]2(OC)c3c(O)c(OC)c4c(c3O[C@@]23O[C@@H](c2ccccc2)CC=C3C1=O)[C@@H](O)C[C@H](c1ccccc1)O4`, the GI50 in the experiment with UACC-257 melanoma was 1.01 µM; in the experiment with SR leukemia, 0.229 µM; in the experiment with U251 CNS, 1.8 µM; in the experiment on HOP-62 NSCLC, 1.54 µM; with SK-OV-3 ovarian, 1.76 µM; with SN12C renal, 0.27 µM. Also, the results for the GI50 in the experiment with PC-3 prostate and with NCI/ADR-RES ovarian were 0.466 µM and 0.688 µM, respectively. In addition, the TGI with UACC-257 melanoma came out at 2.36 µM; in the experiment on SR leukemia, 0.612 µM; in the experiment with U251 CNS it was 3.55 µM; in the experiment with HOP-62 NSCLC, 3.2 µM; with SK-OV-3 ovarian, 3.45 µM; in the experiment on SN12C renal, 0.893 µM. Besides, the TGI in the experiment with PC-3 prostate was 1.03 µM; in the experiment with NCI/ADR-RES ovarian it was 3.39 µM.

As to `Cc1c(-c2nnc(-c3cc(Cl)c(Cl)cc3Cl)o2)nnn1-c1ccnc2c(C(F)(F)F)cccc12`, the GI50 with SR leukemia is 20.6 µM; with U251 CNS it was 19.3 µM; with HOP-62 NSCLC, 20.5 µM; with NCI-H522 lung, 21.8 µM; in the experiment with SK-OV-3 ovarian, 24.5 µM; with SN12C renal, 31.4 µM. Besides, the GI50 in the experiment on PC-3 prostate was 15.9 µM; in the experiment on NCI/ADR-RES ovarian, 22.7 µM; in the experiment with COLO 205 colon, 17.4 µM. In addition, the TGI is 47.5 µM in the experiment on SR leukemia; 37.4 µM in the experiment on U251 CNS; 47.7 µM in the experiment on HOP-62 NSCLC; 55.8 µM in the experiment on NCI-H522 lung; 61.1 µM with SK-OV-3 ovarian; above 100 µM with SN12C renal. The TGI is 37.4 µM in the experiment with PC-3 prostate, 57.1 µM in the experiment on NCI/ADR-RES ovarian and 33.2 µM in the experiment on COLO 205 colon.
